# Like-named read-outs stand apart in the source and are kept apart here.
# Columns and labels:
# [1] = for Total/HDL: baseline 2.9; for Alkaline phosphatase: baseline 44; for HDL: baseline 64; for Triglycerides: baseline 85; for Glucose: baseline 95; for Cholesterol: baseline 184; for Platelets: baseline 359
# Description: METHOD EXAMPLE. Blood chemistry. […] Prior to the start of dosing, a baseline blood draw is obtained for hematology, chemistry, CRP measurement, and metabolite analyses. After the start of dosing, blood draws are obtained monthly.
# CRP = assay: Blood chemistry of a human volunteer: CRP; type: in vivo; details: for CRP: 1,000 mg Ca-AKG + 900 mcg Vitamin A daily, oral, baseline 4.9
# Description: METHOD EXAMPLE. Blood chemistry. […] The following results were obtained:
# inflammatory cytokines = details: female mice, 29 months
# Protocol: METHOD EXAMPLE. Cytokine Levels in Aged Mice. Female mice (18 months) are divided into treatment and untreated groups. Baseline levels of 30 inflammatory cytokines are measured. […] Following treatment, levels of 30 inflammatory cytokines are measured from serum samples and compared to untreated controls.
# [2] = compared to aged controls, p<0.05
smiles,measurement,setting,value
"O=C(O)CCC(=O)C(=O)O [AKG, 2-oxopentanedioic acid]",levels of triglycerides,"[1]; human volunteer, vs baseline",improves
same,"other important biological markers, such as platelets, glucose, PSA","[1]; human volunteer, vs baseline",does not adversely affect
same,lowering of CRP,"CRP; human volunteer, baseline vs 12 months",more than 10 fold
"O.O=C([O-])CCC(=O)C(=O)[O-].[Ca+2] [Ca-AKG, calcium alpha-ketoglutarate monohydrate]",Total/HDL,[1]; 10 Months,2.4
same,Alkaline phosphatase,[1]; 10 Months,40 U/L
same,HDL,[1]; 10 Months,76 mg/dL
same,Triglycerides,[1]; 10 Months,49 mg/dL
same,Glucose,[1]; 10 Months,104 mg/dL
same,Cholesterol,[1]; 10 Months,184 mg/dL
same,Platelets,[1]; 10 Months,392 K/CUMM
same,Total/HDL,[1]; 12 Months,2.4
same,Alkaline phosphatase,[1]; 12 Months,30 U/L
same,HDL,[1]; 12 Months,76 mg/dL
same,Triglycerides,[1]; 12 Months,52 mg/dL
same,Glucose,[1]; 12 Months,99 mg/dL
same,Cholesterol,[1]; 12 Months,181 mg/dL
same,Platelets,[1]; 12 Months,332 K/CUMM
same,level of IL-3,inflammatory cytokines; [2],significantly lower
same,level of IL-7,inflammatory cytokines; [2],significantly lower
same,level of MIP-1β,inflammatory cytokines; [2],significantly lower
same,level of TNF-α,inflammatory cytokines; [2],significantly lower
same,"levels of IL-3, IL-7, TNF-α, and MIP-1β compared to the 18 month baseline",inflammatory cytokines; treatment group vs 18 month baseline,statistically indistinguishable
same,CRP,CRP; 10 Months,2.5 mg/L
same,CRP,CRP; 12 Months,0.4 mg/L

# — patent US20230255912A1, “COMPOSITIONS AND METHODS FOR TREATING CRP-MEDIATED DISEASES” (Ponce de Leon Health Designated Activity Company, priority 2020, published 2023)
